Results taken from patent publication US12324800B2 (priority 2019, dated 2025).

What was measured:
[1] = design: key to Phase preferences, Physiological conditions: L, Lamellar; HII, hexagonal; M, micellar; conditions: liquid crystalline unsaturated lipids, cited from earlier work; for Phase preferences, Other conditions: conditions given in the cell
[2] = Rancimat accelerated oxidation test; assay type: physicochemical
Method: To investigate this, accelerated oxidation tests of cannabis oil in the labile soybean oil with and without additional antioxidants were conducted. The Rancimat (Metrohm MG, Herisau, Switzerland) test was used for this purpose as follows. 2 g of oil were placed in a narrow glass flask, heated to 110° C. and air was bubbled through the oil at 20 ml/min. This caused accelerated oxidation. As the liquid oxidized, volatile secondary oxidation products were volatilized and bubbled into room temperature water. This caused them to dissolve in the water, which results in an increase in its electrical conductivity. The conductivity is measured continuously using a standard electrode.

[3] = THC degradation on heating of cannabis oil films (gas-liquid chromatography); conditions: dry films with 14 mg cannabis oil, 1.5 hours at 100° C.
Method: Five 1 ml chromatography glass vials were used for this purpose. […] Stock solutions of 0.5% sunflower lecithin (Sunlec25), 0.01% TBHQ and 0.5% lecithin+0.01% TBHQ were prepared.
The chloroform was evaporated under a stream of air until completely dry. […] After the heating period, samples were removed from the oven, allowed to cool to room temperature and then 1 ml of fresh chloroform was added to each vial and capped. Samples were then analyzed by gas-liquid chromatography as described previously. […] A 15 m×0.25 mm internal diameter fused silica column with a 0.20 μm DB5 film thickness was used (Agilent Inc., USA). The oven temperature was maintained at 80° C. for 5 minutes and then programmed to increase from 80 to 300° C. at 12° C./min. […] Split ratio was set at 10:1. Helium, the earlier gas, flowed at an average velocity of 25 cm/s. A flame ionization detector was set at 350° C. with 450 mL/min air and 50 mL/min helium flowing. The separated peaks were analyzed using Open LAB software (Agilent Technologies). The amount of cannabinoid was determined by comparing retention times of the peaks to an internal standard. Tor this analysis, the main THC peak was analyzed.

CC(C)CCC[C@@H](C)[C@H]1CC[C@H]2[C@@H]3CC=C4C[C@@H](O)CC[C@]4(C)[C@H]3CC[C@]12C [Cholesterol, cholesterol, reference compound]
Phase preferences, Other conditions [1]: Induces HII phase in mixed

CC(C)(C)c1cc(O)ccc1O [TBHQ, tert-butylhydroquinone]
increase of induction time ([2]; 0.01% TBHQ added to soybean oil alone): 7.1 h | induction time of oxidation ([2]; 0.01% TBHQ added to soybean oil containing 4.8 mg/g cannabis oil): 15.7 h | induction time of oxidation ([2]; 0.01% TBHQ added to soybean oil containing 0.5% sunflower lecithin and 4.8 mg/g cannabis oil): 28.8 h | increase of induction time of oxidation for every 100 ppm TBHQ added ([2]; soybean oil, 110° C.): 7.1 to 7.2 h

CCCCCc1cc(O)c2c(c1)OC(C)(C)[C@@H]1CCC(C)=C[C@@H]21 [THC, tetrahydrocannabinol]
degradation of THC on heating [3]: significant degradation

Cardiolipin
Phase preferences, Physiological conditions [1]: L | Phase preferences, Other conditions [1]: HII, divalent cations,

Cerebroside
Phase preferences, Physiological conditions [1]: L

Cerebroside sulfate
Phase preferences, Physiological conditions [1]: L

Digalactosyldiglyceride
Phase preferences, Physiological conditions [1]: L

Diglucosyldiglyceride
Phase preferences, Physiological conditions [1]: L

Ganglioside
Phase preferences, Physiological conditions [1]: M

Lysophosphatidylcholine
Phase preferences, Physiological conditions [1]: M

Monogalactosyldiglyceride
Phase preferences, Physiological conditions [1]: HII

Monoglucosyldiglyceride
Phase preferences, Physiological conditions [1]: HII

Phosphatidic acid
Phase preferences, Physiological conditions [1]: L | Phase preferences, Other conditions [1]: HII, divalent cations,

Phosphatidylcholine
Phase preferences, Physiological conditions [1]: L | Phase preferences, Other conditions [1]: HII low hydration and high

Phosphatidylethanolamine
Phase preferences, Physiological conditions [1]: HII | Phase preferences, Other conditions [1]: L, pH ≥ 8.5 low temp

Phosphatidylglycerol
Phase preferences, Physiological conditions [1]: L | Phase preferences, Other conditions [1]: HII, high temp, high salt conc.

Phosphatidylinositol
Phase preferences, Physiological conditions [1]: L

Phosphatidylserine
Phase preferences, Physiological conditions [1]: L | Phase preferences, Other conditions [1]: HII, pH ≤ 3.5

Sphingomyelin
Phase preferences, Physiological conditions [1]: L
